Measured values published in PMC4449006, “Targeting KRAS Oncogene in Colon Cancer Cells with 7-Carboxylate Indolo[3,2-b]quinoline Tri-Alkylamine Derivatives” (PLoS ONE, 2015).

Key:
[1] = tested on: HSP90A G-quadruplex DNA; test: FRET melting assay, HSP90A G-quadruplex DNA; format: binding; conditions: standard deviation < 0.2°C
Experimental: The capacity of compounds 1a-d, 2a-d and the standard G4 ligand TMPyP4 (Fig 1) to bind and stabilize KRAS [26] and HSP90A [27] G4 DNA structures as well as duplex DNA (T-loop) was evaluated by a Fluorescence Resonance Energy Transfer (FRET) melting assay. […] It was observed that the basicity of side chains correlates positively with thermal G4 stabilization of all DNA sequences up to an optimal pKa ~ 8.0–9.0 (Fig 2). Heterocyclic amines at the end of alkyl side chain (1b and 2b) appear to improve binding to G4s and complex stabilization compared to the di-ethylamine group (1a and 2a), which cannot be explained by differences in basicity between terminal groups. […] However, this was not observed for the isomeric pair 1a / 2a.
All oligonucleotides were purchased from Eurofins MWG Synthesis GmbH, Germany. The labeled oligonucleotides used in the FRET assays had attached the donor fluorophore FAM (6-carboxyfluorescein) and the acceptor fluorophore TAMRA (6-carboxytetramethylrhodamine): KRAS21R (5’-FAM-[…]-TAMRA-3’); HSP90A (5’- [FAM]-[…]-[TAMRA]-3’); T-Loop (5’-FAM-[…]-TAMRA-3’). Each oligonucleotide was initially diluted to a storage solution at 100 μM in nuclease free water (not DEPC-treated), purchased from Ambion Applied Biosystems UK.
The ability of IQ3A and TMPyP4 to stabilize G-quadruplex and duplex DNA sequences was investigated using a Fluorescence Resonance Energy Transfer (FRET) assay. Stock solution of the oligonucleotides sequences at 20 μM and subsequent dilutions were obtained from storage solutions diluting with K-cacodylate buffer pH = 7.4, containing 60 mM K^+ (10 mM potassium cacodylate, 50 mM KCl). The FRET probe sequences were diluted from stock to the correct concentration (0.4 μM) and then annealed by heating to 95°C for 10 min, followed by cooling to RT. Test compounds were prepared as 1 mM in 10% DMSO and 10% 1mM HCl in HPLC-grade water. The rest of the dilutions were performed using FRET buffer. Annealed DNA (50 μL) and compound solution (50 μL) were distributed across 96-well RT-PCR plates (BioRad; MJ Research, Waltham, MA, USA). Relevant controls were also performed to check for interference with the assay. Fluorescence readings were made on a DNA Engine Opticon (MJ Research) with excitation at 450–495 nm and detection at 515–545 nm, taken at intervals of 0.5°C in the range 30–100°C, with a constant temperature being maintained for 30 s prior to each reading to ensure a stable value. Experiments were performed in triplicate. Final analysis of the data was carried out with GraphPad Prism 5.0 software (GraphPad Software, Inc). The advanced curve-fitting function in GraphPad Prism was used for calculation of ΔT m values and associated standard deviations.

[2] = tested on: HCT116 cells; test: Hoechst staining and Guava Nexin assay, HCT116; format: cell-based, human; conditions: HCT116, 72 h, IC50 concentrations
Experimental: To further validate the effect of the IQ3A compounds on the induction of apoptosis in HCT116 cells, apoptosis was ascertained by evaluating changes in nuclear morphology by Hoechst staining, and also by the Nexin assay, following 72 h of incubation with IQ3A compounds at the IC50 concentrations. […] The p53 protein plays a central and pivotal role in human cancers, having a potent tumor suppressive activity via pleiotropic mechanisms. Therefore, the steady-state levels of p53 protein were evaluated by immunoblotting, following 72 h of incubation with IQ3A compounds at the IC50 concentrations, to ascertain their involvement on the mechanism of apoptosis elicited by IQ3A. […] In SW620 cells, no significant increase in p53 steady-state expression was detected, possibly due to the mutant status of p53 (Fig 5A, middle panel). […]
Fig 4 Exposure to IQ3A compounds increases apoptosis in HCT116 cells. […] Results are expressed as the mean percentage (%) of early (LR quadrant) and late (UR quadrant) apoptotic cells.
The Nexin Assay distinguishes viable, early and late apoptotic cells based on the externalization of phosphatidylserine to the cell surface, where Annexin V can readily bind them. […]

Q: Which “ΔTm (°C) HSP90A 1 μM” value ([1]; 1 μM compound) does the source give for `CCN(CC)CCOC(=O)c1ccc2c(c1)c1nc3ccccc3c(OCCN(CC)CC)c1n2CCN(CC)CC` [1a] here?
A: 14 °C

Q: And the “ΔTm (°C) HSP90A 2 μM” value ([1]; 2 μM compound)?
A: 20 °C

Q: And the induction of apoptosis [2]?
A: marked increase in apoptosis compared to vehicle
